Results as given in patent US20100204110A1, “USE OF A PEPTIDE AS A THERAPEUTIC AGENT” (priority 2007, published 2010).
Ends that are not written are not given here.

Experiments:
HIV-1IIIB = experiment: HIV-1 antiviral assay in CEM-SS cells (MTS); format: cell-based; conditions: positive controls; CEM-SS cells plus HIV-1IIIB
[1] = system: hepatitis B virus (HBV) ayw strain; experiment: HBV assay in HepG2-2.2.15 cells (TaqMan PCR of HBV DNA); format: cell-based; conditions: 10 micrograms per ml, six days
From the text: HepG2-2.2.15 is a stable cell line containing the hepatitis B virus (HBV) ayw strain genome (ATCC Cat. No. CRL-11997). Antiviral compounds blocking any late step of viral replication such as transcription, translation, pregenome encapsidation, reverse transcription, particle assembly and release can be identified and characterized using this cell line. In this assay, an active compound will reduce the production of secreted HBV from cells, measured by utilizing real time quantitative PCR (TaqMan) assay to directly and accurately measure HBV DNA copies.
HepG2-2.2.15 cells were plated in 96-well microtiter plates. After 16-24 hours the confluent monolayer of HepG2-2.2.15 cells was washed and the medium was replaced with complete medium containing test peptides—10 micrograms per ml—in duplicate. […] Six days following the initial administration of the peptides, the cell culture supernatants was collected, treated with pronase and DNAse and then used in a real-time quantitative TaqMan PCR assay. The PCR-amplified HBV DNA was detected in real-time by monitoring increases in fluorescence signals that result from the exonucleolytic degradation of a quenched fluorescence probe molecule that hybridizes to the mplified HBV DNA. […] Antiviral activity was calculated from the reduction in HBV DNA levels (% virus control). […]

[2] = system: Primary Human endothelial cells (HUVEC); experiment: Endothelial cell migration assay; conditions: 10 micrograms per ml, 22 hours, combination peptide 1:peptide 2 0.95 mole:1.05 mole
Method: Primary Human endothelial cells (HUVEC) were seeded in insert chambers with 3 micrometer pore size of multi-transwell plate for 6 hours at 37° C. in Endothelial Cell Basal Medium (EBM) supplemented with 0.1% bovine serum albumin. Thereafter, designated concentration of testing peptides—10 micrograms per ml—was added in duplicate wells. The endothelia were allowed to migrate for 22 hours at 37° C., then, migrated cells were fixed and stained with Hoechst 33342 dye. Images of 3 fields per insert were taken and the number of migrated cells per field were quantified using the ImageProPlus software. Data were analyzed for the average number of the migrated cells and standard deviation of six data points for each treatment condition. […] Statistic p values were computed using the Student's t-test.

HUVEC = experiment: Endothelial tube formation assay; conditions: 10 micrograms per ml, 20 hours, combination peptide 1:peptide 2 1.10 mole:0.90 mole
Method: The endothelial tube formation assay is based on the ability of endothelial cells to form three-dimensional capillary-like tubular structures when cultured on a gel of basement membrane extract. […] Pre-labeled HUVEC with Calcein AM were seeded in a 96-well culture plate coated with extracellular metrix (Chemicon international Cat. ECM625) and treated with test peptides—10 micrograms per ml—in full growth medium. Positive control was vehicle only. The endothelial cells were allowed to form tubes foe 20 hours and were then examined under an inverted fluorescent microscope. Duplicate wells for each treatment were photographed and quantitatevily analyzed for an average tubule length using image analysis software ImageProPlus. Raw data were expressed as average tubule lenghs in pixels±standard deviation. Statistic p values were computed using the Student's t-test.

HCMV strain AD169 = experiment: HCMV plaque formation assay in MRC-5 cells; conditions: 10 micrograms per ml, 7-10 days
RAW 264.7 cells = experiment: Phagocytosis assay (Fluorescein-labeled Escherichia coli, flow cytometry); conditions: 10 micrograms per ml, combination peptide 1 : peptide 2 1.10 mole : 0.90 mole
Method: RAW 264.7 (Mouse leukaemic monocyte macrophage cell line) cells were obtained from ATCC and grown in RPMI 1640 medium containing 10% FBS. Cells were incubated in 12×75 mm tubes at 37° C. with test peptides—10 micrograms per ml—for 30 min prior to adding Fluorescein-labeled Escherichia coli bacteria as the agent to be ingested. After the cells were incubated for additional 60 min at 37° C. and allowed to ingest the Fluorescein-labeled Escherichia coli bacteria, cells were fixed with 1% paraformaldehyde. The samples were then analyzed by flow cytometry to determine the amount of phagocytosis as a function of brightness (the greater the phagocytic activity, the more fluorescence in the macrophage population). Data are reported as % positive and the mean fluorescence intensity (MFI) of positively stained cells.

spleen cells = experiment: Th1/Th2 cytokine profiling assay (Ovalbumin-restimulated spleen cells, CBA Kit); conditions: 10 micrograms per ml; Ovalbumin restimulation; 72 hours
From the text: The Balb/c mice (originated in 1923, it is a popular strain and is used in many different research disciplines. Also classified as an inbred from the production of 20 or more successive brother-sister matings, the Balb/c mouse is albino and small in size) were immunized on Days 1, 15, and 29 with Ovalbumin (Ovalbumin is the main protein found in egg white, commonly used to stimulate an immunological reaction in test animals) in PBS (5 micrograms/injection). On day 50, spleens of the mice were harvested (3 weeks after last boost with Ovalbumin). Cells were cultured (2×10^5/well in triplicate) and incubated with culture medium or test peptides—10 micrograms per ml—for 30 min. Thereafter, additional Ovalbumin was added to the cells at 10 micrograms/ml for in vitro restimulation of the cells. 72 hours later, cell supernatants were harvested and assayed using the Becton Dickinson Mouse Th1/Th2 Cytokine CBA Kit. This kit can be used to measure Interleukin-2 (IL-2), Interleukin-4 (IL-4), Interleukin-5 (IL-5), Interferon-γ (IFN-γ), and Tumor Necrosis Factor-α (TNF-α) protein levels in a single sample. The kit performance has been optimized for analysis of physiologically relevant concentrations (pg/ml levels) of specific cytokine proteins in tissue culture supernatants and serum samples.

Row | Compound | antiviral activity of positive control compounds (HIV-1) (HIV-1IIIB) | inhibition of HBV replication as compared to the virus control infection [1] | inhibition of the migration of human endothelial cells [2] | inhibition of the tube formation of human endothelial cells (HUVEC) | inhibition of HCMV plaque formation as compared to the virus control (HCMV strain AD169) | increase on the phagocytic activity of murine macrophages (RAW 264.7 cells) | IFNγ spleen cells; TH1 response (% of control) (spleen cells) | IL-2 spleen cells (% of control) (spleen cells) | IL-4 spleen cells; TH2 response (% of control) (spleen cells) | IL-5 spleen cells; TH2 response (% of control) (spleen cells) | TNF-a spleen cells; TH1 response (% of control) (spleen cells)
1 | Cc1cn([C@H]2C[C@H](N=[N+]=[N-])[C@@H](CO)O2)c(=O)[nH]c1=O [AZT] | expected levels of antiviral activity |  |  |  |  |  |  |  |  |  | 
2 | CC(C)(C)NC(=O)[C@@H]1CN(Cc2cccnc2)CCN1C[C@@H](O)C[C@@H](Cc1ccccc1)C(=O)N[C@H]1c2ccccc2C[C@H]1O [indinavir] | expected levels of antiviral activity |  |  |  |  |  |  |  |  |  | 
3 | Val-Tyr-Pro-Asn-Gly-Ala-Glu-Asp-Glu-Ser-Ala-Glu-Ala-Phe-Pro-Leu-Glu-Phe-OH (VYPNGAEDESAEAFPLEF-OH) [peptide 2] |  | 37.6% | 38% | did not inhibit | did not inhibit | 28.6% | 114.7 % of control | 53.9 % of control | 140.5 % of control | 65.5 % of control | 118.8 % of control
